“Also recorded” adds a separate entry of the source.

What all share (format): cell-based
Data set [1] has as its system RPS19 protein. The experiment in a line: RPS19 protein levels by western blot in TF-1 stable cell lines. The following applies: TF-1 stable line, doxycycline-induced shRNA, by day 5. The procedure:
To generate an RPS19 deficient Diamond blackfan anemia (DBA) model, a TF-1 erythroid cell line was transduced with lentivirus encoding shRNAs targeting RPS19 (referred to as “shRNA #a” and “shRNA #b”) and a scrambled shRNA control (referred to as “Scramble shRNA” or “Scrambled”) (See Table 1). Stable cell lines were generated by selecting the infected cells with puromycin (1 ug/ml) for three weeks. The shRNA expression is doxycycline inducible. In the stable cell lines, RPS19 mRNA expression was measured using qRT-PCR after two (FIG. 1A) and four (FIG. 1B) days of doxycycline treatment. […] Further, RPS19 protein levels were decreased by more than 70% by shRNA #b by day 5 (FIG. 2A and FIG. 2B). The antibodies used in determining the RPS19 protein levels are described in Table 1.
(In western blotting, separated proteins are transferred to a membrane and probed.)

For data set [2], the system named is TF-1 cells. The experiment in a line: Cell growth of TF-1 stable lines by cell counting with trypan blue staining. The following applies: 6 days of culture with doxycycline; for growth inhibition (cell count): EPO; for effect on cell proliferation (cell count) compared to scrambled shRNA: GMCSF (2 ng/ml). The source says: RPS19 knockdown in TF-1 cells has been previously reported to adversely affect the growth of erythroid cells due to an imbalance in heme and globin synthesis. See, e.g., Yang, Z. et al. Sci Transl Med 8, 338ra67 (2016). The TF-1 cell line is a cell line of immature erythroid origin that requires cytokines such as granulocyte-macrophage colony-stimulating factor (GMCSF) or erythropoietin (EPO) for its growth. The cell growth capability of TF-1 stable lines shRNA #a, shRNA #b, and scrambled shRNA were assessed in vitro by cell counting after 6-days of cell culture in the presence of doxycycline induction. Cells were washed from regular growth media and seeded in equal numbers into media containing either GMCSF (2 ng/ml), a growth factor that induces proliferation of the TF-1 cells, or EPO (Ing/ml), a hormone that induces growth of the TF-1 cells and induces their differentiation along the erythroid lineage. Cell growth was monitored by counting cells with trypan blue staining (FIG. 3A and FIG. 3B).

Data set [3] concerns TF-1 cells. Description: Cell viability of TF-1 stable lines by CellTiter-Glo (CTG). The following applies: GMCSF and EPO stimulus, doxycycline, 96-well plates. How it is done:
Similarly, the cell growth capability of TF-1 stable lines shRNA #a, shRNA #b, and scrambled shRNA was assessed in vitro by cell viability assay. As described above, washed cells were seeded into 96 well plates in equal numbers in media containing either GMCSF or EPO (FIG. 4A and FIG. 4B) on separate plates for each day of readout. Cell viability was measured using the CellTiter-Glo® (CTG), which determines the number of viable cells in culture by quantifying ATP, which indicates the presence of metabolically active cells.
A general note: Cellular ATP, detected with luciferase, serves as a proxy for viable cell number.

In data set [4] the test system is TF-1 shRNA #a cells. The experiment in a line: Cell number after bitopertin treatment, RPS19 knockdown TF-1 cells. The following applies: 4 nM or 37 nM bitopertin, 2 days (day 4 to day 6), doxycycline and GMCSF. How it is done: (§1) Prior to treatment with bitopertin, the TF-1/shRNA #a cells were treated with doxycycline for 4 days to induce RPS19 knockdown by shRNA #a. TF-1/scramble shRNA cells were treated similarly as an experimental control. On day 4, both TF-1/shRNA #a and TF-1/scramble shRNA cells were seeded to the 12-well cell culture plates at a density of 1×10^5 cells per well. Bitopertin was added to the cells in 12-well plates for 48 hours of treatment from day 4 to day 6. […] Each of the TF-1 cells were also treated with doxycycline and GMCSF, which induces shRNA expression and stimulates proliferation, for the entirety of the experiment.
(§2) We investigated if blocking the uptake of heme biosynthesis pathway precursor glycine into cells with bitopertin could restore the balance between heme and globin and reverse the anti-proliferative effects caused by RPS19 knockdown. To test this hypothesis, similarly as above, washed cells were seeded in 6-well plates with doxycycline and GMSCSF to induce shRNA expression and cell proliferation for four days. On day 4, 1×10^5 cells were seeded into a 12-well plate with 4 nM or 37 nM bitopertin. After two days of treatment with bitopertin, we enumerated cell numbers.

The test system of data set [5] is TF-1 cells expressing scrambled shRNA. Description: Cell number after bitopertin treatment, scrambled shRNA TF-1 cells. The following applies: 4 nM or 37 nM bitopertin, 2 days (day 4 to day 6), doxycycline and GMCSF. The procedure: as §1, §2
Data set [6] relates to TF-1/shRNA #b cells. The experiment in a line: CTG cell viability after bitopertin treatment, RPS19 knockdown TF-1 cells. The following applies: varying doses, 1 μM top concentration, 9 points 3-fold dilutions, 2 days, doxycycline and GMCSF. How it is done:
The cells were treated with (1) doxycycline during the entire cell culture period to induce shRNA expression; (2) GMCSF during the entire 6 days of cell culture period to induce proliferation. At day 4 of cell culture, the TF-1 cells were seeded to the 96-well cell culture plates at a density of 1×10^4 cells per well, and were treated with varying doses of bitopertin for two days of the culture period, from day 4 to day 6.
Further, in a similar setup, an equal number of cells were seeded on to 96-well plates after four days of doxycycline treatment and incubated with varying doses of bitopertin (1 μM top concentration, 9 points 3-fold dilutions) for two days and on day 6, we performed a CTG assay to measure the cell viability. The cells were cultured in the presence of GMCSF during the entire cell culture period.

For the compound “shRNA #b: lentivirus-encoded, doxycycline-inducible shRNA targeting RPS19, GCTTGCTCCCTACGATGAGAA (SEQ ID NO: 2)”, in data set [1], the “decrease of RPS19 protein levels” value was “more than 70%”. Further, in data set [2], the “growth inhibition (cell count)” value is “dose-dependent growth inhibition” and the “effect on cell proliferation (cell count) compared to scrambled shRNA” value is “more substantial effect”. The “cell growth inhibition (CTG cell viability) compared to scrambled shRNA” value in data set [3] is listed as “high degree inhibition in cell growth”.
On to “shRNA #a: lentivirus-encoded, doxycycline-inducible shRNA targeting RPS19, GAGATCTGGACAGAATCGC (SEQ ID NO: 1)”, for which, in data set [2], the “growth inhibition (cell count)” value was “dose-dependent growth inhibition” and the “effect on cell proliferation (cell count) compared to scrambled shRNA” value is recorded as “moderate effect”. Further, the “cell growth inhibition (CTG cell viability) compared to scrambled shRNA” value in data set [3] is given as “moderate cell growth inhibitory effects”.
As for `C[C@H](Oc1ccc(S(C)(=O)=O)cc1C(=O)N1CCN(c2ncc(C(F)(F)F)cc2F)CC1)C(F)(F)F` [bitopertin], the “effect on cell number of RPS19 knockdown cells” value in data set [4] is given as “reverses the anti-proliferative effects; also recorded: protective effect”. The “effect on cell number of scrambled shRNA cells” value in data set [5] is reported as “did not affect”. Also, the “effect on cell viability (CTG) compared to TF-1/scrambled shRNA cells” value in data set [6] is on record as “dose-dependent bitopertin protective effect”.

These data come from patent US20240325382A1, “COMPOSITIONS AND METHODS FOR TREATING ANEMIA ASSOCIATED WITH A RIBOSOMAL DISORDER” (Disc Medicine, Inc., priority 2021, published 2024).
